{
  "source": "patent US20250313575A1",
  "about": "“MACROCYCLES AS LRRK2 INHIBITORS, PHARMACEUTICAL COMPOSITIONS, AND USES THEREOF” (Merck Sharp & Dohme LLC, priority 2022, published 2025)",
  "data": [
    {"target": "GST-tagged truncated human mutant G2019S LRRK2 (Homo sapiens (Human), UniProt Q5S007, G2019S)", "sequence (Q5S007 970-2527 G2019S)": "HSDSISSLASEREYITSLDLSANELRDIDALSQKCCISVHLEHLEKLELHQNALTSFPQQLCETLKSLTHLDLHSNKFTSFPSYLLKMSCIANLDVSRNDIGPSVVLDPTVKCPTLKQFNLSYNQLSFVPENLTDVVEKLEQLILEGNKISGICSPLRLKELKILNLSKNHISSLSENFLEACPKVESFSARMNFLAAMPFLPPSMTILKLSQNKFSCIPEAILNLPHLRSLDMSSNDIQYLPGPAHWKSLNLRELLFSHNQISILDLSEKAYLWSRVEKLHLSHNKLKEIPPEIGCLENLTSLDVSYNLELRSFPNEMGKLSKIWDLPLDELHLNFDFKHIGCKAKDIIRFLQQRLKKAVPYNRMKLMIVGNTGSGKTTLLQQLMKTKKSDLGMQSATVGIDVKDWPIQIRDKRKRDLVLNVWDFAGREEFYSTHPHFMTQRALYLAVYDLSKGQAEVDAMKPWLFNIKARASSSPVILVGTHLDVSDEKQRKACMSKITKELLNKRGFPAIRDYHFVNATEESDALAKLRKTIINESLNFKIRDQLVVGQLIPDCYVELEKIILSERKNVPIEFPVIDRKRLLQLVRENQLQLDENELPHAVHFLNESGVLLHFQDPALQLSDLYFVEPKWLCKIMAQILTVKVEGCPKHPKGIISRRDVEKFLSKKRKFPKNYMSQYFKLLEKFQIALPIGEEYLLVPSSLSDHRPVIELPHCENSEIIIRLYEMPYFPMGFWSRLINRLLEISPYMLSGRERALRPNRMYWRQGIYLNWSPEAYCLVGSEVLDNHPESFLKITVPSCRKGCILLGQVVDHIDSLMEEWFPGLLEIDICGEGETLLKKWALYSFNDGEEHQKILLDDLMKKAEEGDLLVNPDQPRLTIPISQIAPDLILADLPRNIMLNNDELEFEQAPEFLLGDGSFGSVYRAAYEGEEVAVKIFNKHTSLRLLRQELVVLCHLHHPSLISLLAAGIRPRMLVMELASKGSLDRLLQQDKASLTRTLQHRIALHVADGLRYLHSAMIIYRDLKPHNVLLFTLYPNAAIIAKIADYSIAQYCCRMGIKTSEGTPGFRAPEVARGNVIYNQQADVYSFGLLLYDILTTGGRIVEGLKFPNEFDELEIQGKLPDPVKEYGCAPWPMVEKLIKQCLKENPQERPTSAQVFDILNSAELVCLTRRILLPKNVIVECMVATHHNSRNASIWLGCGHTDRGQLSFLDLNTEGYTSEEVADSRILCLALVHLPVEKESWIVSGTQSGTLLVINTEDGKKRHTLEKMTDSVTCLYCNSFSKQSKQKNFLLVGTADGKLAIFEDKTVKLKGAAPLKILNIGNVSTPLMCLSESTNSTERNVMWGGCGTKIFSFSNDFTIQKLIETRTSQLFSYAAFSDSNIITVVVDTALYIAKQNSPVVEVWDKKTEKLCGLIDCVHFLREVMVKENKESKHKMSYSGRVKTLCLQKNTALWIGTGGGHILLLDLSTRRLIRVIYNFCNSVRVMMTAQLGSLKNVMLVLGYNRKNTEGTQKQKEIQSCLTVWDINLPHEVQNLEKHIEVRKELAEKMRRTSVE", "assay": "LRRK2 G2019S Km ATP LanthaScreen assay", "type": "biochemical", "conditions": "G2019S LRRK2, 134 μM ATP (Km ATP), LRRKtide substrate", "description": "(§1) Unless otherwise noted, all reactions are magnetically allowed to stir, diethyl ether used in the experiments described below is Fisher ACS certified material stabilized with BHT, and “concentrated” and/or “solvent removed under reduced pressure” means evaporating the solvent from a solution or mixture using a rotary evaporator or vacuum pump. Unless otherwise noted, flash chromatography is carried out on a Teledyne Isco (Lincoln, NE), Analogix (Burlington, WI), or Biotage (Stockholm, SWE) automated chromatography system using a commercially available cartridge as the column. Columns may be purchased from Teledyne Isco, Analogix, Biotage, Varian (Palo Alto, CA), or Supelco (Bellefonte, PA) and are usually filled with silica gel as the stationary phase. Reverse phase prep-HPLC conditions, where used, can be found at the end of each experimental section. Aqueous solutions were concentrated on a Genevac (Ipswich, ENG) or by freeze-drying/lyophilization. Unless otherwise noted, all LRRK2 pIC50 data presented in tables refers to the LRRK2 G2019S Km ATP LanthaScreen™ assay (Life Technologies Corp., Carlsbad, CA) that is described in the Biological Assay section.\n(§2) The LRRK2 kinase activity reported herein as IC50 values was determined with LanthaScreen™ technology from Life Technologies Corporation (Carlsbad, CA) using GST-tagged truncated human mutant G2019S LRRK2 in the presence of the fluorescein-labeled peptide substrate LRRKtide, also from Life Technologies. The data presented for the […] depending on the specific conditions and reagents used. Assays were performed in the presence of 134 μM ATP (Km ATP). Upon completion, the assay was stopped and phosphorylated substrate detected with a terbium (Tb)-labeled anti-pERM antibody (cat. no. PV4898). The compound dose response was prepared by diluting a 10 mM stock of compound to a maximum concentration of 9.99 μM in 100% dimethylsulfoxide followed by custom fold serial dilution in dimethylsulfoxide nine times. Twenty nanoliters of each dilution was spotted via a Labcyte Echo onto a 384-well black-sided plate (Corning 3575) followed by 15 μl of a 1.25 nM enzyme solution in 1× assay buffer (50 mM Tris pH 8.5, 10 mM MgCl2, 0.01% Brij-35, 1 mM EGTA, 2 mM dithiothreitol, 0.05 mM sodium orthovanadate). Following a 15-minute incubation at room temperature, the kinase reaction was started with the addition of 5 μl of 400 nM fluorescein-labeled LRRKtide peptide substrate and 134 μM ATP solution in 1× assay buffer. The reaction was allowed to progress at ambient temperature for 90 minutes. The reaction was then stopped by the addition of 20 μl of TR-FRET Dilution Buffer (Life Technologies, Carlsbad, CA) containing 2 nM Tb-labeled anti-phospho LRRKtide antibody and 10 mM EDTA (Life Technologies, Carlsbad, CA). After an incubation of 1 h at room temperature, the plate was read on an EnVision multimode plate reader (Perkin Elmer, Waltham, MA) with an excitation wavelength of 337 nm (Laser) and a reading emission at both 520 and 495 nm. Compound IC50s were interpolated from nonlinear regression best fits of the log of the final compound concentration, plotted as a function of the 520/495-nm emission ratio using Activity base. Abase uses a 4 parameter (4P) logistic fit based on the Levenberg-Marquardt algorithm.", "values": [
      {"molecule": "Cc1nn(C2CCC2)c2c1OC[C@@H]1COC[C@H]1Nc1nc(ncc1C(F)(F)F)N2", "note": "(single isomer, unassigned) [Ex-2.27, (3aR,15aR)- or (3aS,15aS)-11-cyclobutyl-13-methyl-6-(trifluoromethyl)-2,3,3a,4,10,11,15,15a-octahydro-5,9-(azeno)furo[3,2-k]pyrazolo[4,3-b][1]oxa[4,6,10]triazacyclotridecine]", "LRRK2 pIC50": 6.47},
      {"molecule": "CC1CCOc2c(C(C)(C)C#N)nn(C3CCC3)c2Nc2ncc(C(F)(F)F)c(n2)N1", "note": "(single isomer, unassigned) [Ex-2.29, (R)- or (S)-butyl-7-methyl-10-(trifluoromethyl)-1,5,6,7,8,14-hexahydro-9,13-(azeno)pyrazolo[4,3-b][1]oxa[4,6,10]triazacyclotridecin-3-yl)-2-methylpropanenitrile]", "LRRK2 pIC50": 5.70},
      {"molecule": "CC1CCOc2c(C(C)(C)C#N)nn(C3CCC3)c2Nc2ncc(C(F)(F)F)c(n2)N1", "note": "(single isomer, unassigned) [Ex-2.30, (R)- or (S)-butyl-7-methyl-10-(trifluoromethyl)-1,5,6,7,8,14-hexahydro-9,13-(azeno)pyrazolo[4,3-b][1]oxa[4,6,10]triazacyclotridecin-3-yl)-2-methylpropanenitrile]", "LRRK2 pIC50": 10.03},
      {"molecule": "CC(C)n1nc(C2C[C@@H]2C#N)c2c1Nc1ncc(C(F)(F)F)c(n1)N[C@@H]1COC[C@H]1CO2", "note": "(single isomer, unassigned) [Ex-2.44, (1S,2S)- or (1R,2R)-2-((10aS,13aS)-3-isopropyl-8-(trifluoromethyl)-3,4,10a,11,13a,14-hexahydro-10H,13H-5,9-(azeno)furo[3,4-k]pyrazolo[4,3-b][1]oxa[4,6,10]triazacyclotridecin-1-yl)cyclopropane-1-carbonitrile]", "LRRK2 pIC50": 8.80},
      {"molecule": "CC(C)n1nc(C2C[C@@H]2C#N)c2c1Nc1ncc(C(F)(F)F)c(n1)N[C@@H]1COC[C@H]1CO2", "note": "(single isomer, unassigned) [Ex-2.45, (1S,2S)- or (1R,2R)-2-((10aS,13aS)-3-isopropyl-8-(trifluoromethyl)-3,4,10a,11,13a,14-hexahydro-10H,13H-5,9-(azeno)furo[3,4-k]pyrazolo[4,3-b][1]oxa[4,6,10]triazacyclotridecin-1-yl)cyclopropane-1-carbonitrile]", "LRRK2 pIC50": 8.32},
      {"molecule": "N#CC1CC1c1nn(C2CCC2)c2c1OC[C@@H]1COC[C@H]1Nc1nc(ncc1C(F)(F)F)N2", "note": "(single isomer, unassigned) [Ex-2.50, (1R,2R)- or (1S,2S)-2-((10aS,13aS)-3-cyclobutyl-8-(trifluoromethyl)-3,4,10a,11,13a,14-hexahydro-10H,13H-5,9-(azeno)furo[3,4-k]pyrazolo[4,3-b][1]oxa[4,6,10]triazacyclotridecin-1-yl)cyclopropane-1-carbonitrile]", "LRRK2 pIC50": 9.77},
      {"molecule": "N#CC1CC1c1nn(C2CCC2)c2c1OC[C@@H]1COC[C@H]1Nc1nc(ncc1C(F)(F)F)N2", "note": "(single isomer, unassigned) [Ex-2.51, (1R,2R)- or (1S,2S)-2-((10aS,13aS)-3-cyclobutyl-8-(trifluoromethyl)-3,4,10a,11,13a, 14-hexahydro-10H,13H-5,9-(azeno)furo[3,4-k]pyrazolo[4,3-b][1]oxa[4,6,10]triazacyclotridecin-1-yl)cyclopropane-1-carbonitrile]", "LRRK2 pIC50": 9.05},
      {"molecule": "Cc1nn(C2CCC2)c2c1OC1COC[C@H]1CNc1nc(ncc1C(F)(F)F)N2", "note": "(single isomer, unassigned) [Ex-2.81, (11aR,14aS) or (11aS,14aR)-3-cyclobutyl-1-methyl-8-(trifluoromethyl)-3,4,10,11,11a,12,14,14a-octahydro-5,9-(azeno)furo[3,4-1]pyrazolo[4,3-b][1]oxa[4,6,10]triazacyclotridecine]", "LRRK2 pIC50": 5.99},
      {"molecule": "Cc1nn(C2CCC2)c2c1OC1COC[C@H]1CNc1nc(ncc1C(F)(F)F)N2", "note": "(single isomer, unassigned) [Ex-2.82, (11aR,14aS) or (11aS,14aR)-3-cyclobutyl-1-methyl-8-(trifluoromethyl)-3,4,10,11,11a,12,14,14a-octahydro-5,9-(azeno)furo[3,4-1]pyrazolo[4,3-b][1]oxa[4,6,10]triazacyclotridecine]", "LRRK2 pIC50": 9.60},
      {"molecule": "O[C@@H]1COCC1n1nc(C2CC2)c2c1OC[C@H]1CC[C@@H]1Nc1nc(ncc1C(F)(F)F)N2", "note": "(single isomer, unassigned) [Ex-6.1, (3R,4S)-4-((10aR,12aR)- or (3R,4S)-4-((10aS,12aS)- or (3S,4R)-4-((10aR,12aR)- or (3S,4R)-4-((10aR,12aR)-3-cyclopropyl-8-(trifluoromethyl)-10,10a,11,12,12a,13-hexahydro-5,9-(azeno)cyclobuta[k]pyrazolo[3,4-b][1]oxa[4,6,10]triazacyclotridecin-1 (4H)-yl)tetrahydrofuran-3-ol]", "LRRK2 pIC50": 7.94},
      {"molecule": "O[C@@H]1COCC1n1nc(C2CC2)c2c1OC[C@H]1CC[C@@H]1Nc1nc(ncc1C(F)(F)F)N2", "note": "(single isomer, unassigned) [Ex-6.2, (3R,4S)-4-((10aR,12aR)- or (3R,4S)-4-((10aS,12aS)- or (3S,4R)-4-((10aR,12aR)- or (3S,4R)-4-((10aR,12aR)-3-cyclopropyl-8-(trifluoromethyl)-10,10a,11,12,12a,13-hexahydro-5,9-(azeno)cyclobuta[k]pyrazolo[3,4-b][1]oxa[4,6,10]triazacyclotridecin-1 (4H)-yl)tetrahydrofuran-3-ol]", "LRRK2 pIC50": ">10.09"},
      {"molecule": "O[C@@H]1COCC1n1nc(C2CC2)c2c1OC[C@H]1CC[C@@H]1Nc1nc(ncc1C(F)(F)F)N2", "note": "(single isomer, unassigned) [Ex-6.3, (3R,4S)-4-((10aR,12aR)- or (3R,4S)-4-((10aS,12aS)- or (3S,4R)-4-((10aR,12aR)- or (3S,4R)-4-((10aR,12aR)-3-cyclopropyl-8-(trifluoromethyl)-10,10a,11,12,12a,13-hexahydro-5,9-(azeno)cyclobuta[k]pyrazolo[3,4-b][1]oxa[4,6,10]triazacyclotridecin-1 (4H)-yl)tetrahydrofuran-3-ol]", "LRRK2 pIC50": 7.29},
      {"molecule": "O[C@@H]1COCC1n1nc(C2CC2)c2c1OC[C@H]1CC[C@@H]1Nc1nc(ncc1C(F)(F)F)N2", "note": "(single isomer, unassigned) [Ex-6.4, (3R,4S)-4-((10aR,12aR)- or (3R,4S)-4-((10aS,12aS)- or (3S,4R)-4-((10aR,12aR)- or (3S,4R)-4-((10aR,12aR)-3-cyclopropyl-8-(trifluoromethyl)-10,10a,11,12,12a,13-hexahydro-5,9-(azeno)cyclobuta[k]pyrazolo[3,4-b][1]oxa[4,6,10]triazacyclotridecin-1 (4H)-yl)tetrahydrofuran-3-ol]", "LRRK2 pIC50": ">10.09"}
    ]},
    {"target": "GST-tagged truncated human mutant G2019S LRRK2 (Homo sapiens (Human), UniProt Q5S007, G2019S)", "assay": "LRRK2 G2019S Km ATP LanthaScreen assay", "type": "biochemical", "conditions": "G2019S LRRK2, 134 μM ATP (Km ATP), LRRKtide substrate; read-out: LRRK2 pIC50 (converted)", "description": "as §1, §2", "units": {"IC50": "nM"}, "values": [
      {"molecule": "COC1CC(n2nc(C)c3c2Nc2ncc(C(F)(F)F)c(n2)NC2COCC2CO3)C1", "note": "(single isomer, unassigned) [Ex-2.31, (10aS,13aS)- or (10aR,13aR)-3-((1R,3S)-3-methoxycyclobutyl)-1-methyl-8-(trifluoromethyl)-3,4,10a,11,13a,14-hexahydro-10H,13H-5,9-(azeno)furo[3,4-k]pyrazolo[4,3-b][1]oxa[4,6,10]triazacyclotridecine]", "IC50": 288},
      {"molecule": "COC1CC(n2nc(C)c3c2Nc2ncc(C(F)(F)F)c(n2)NC2COCC2CO3)C1", "note": "(single isomer, unassigned) [Ex-2.32, (10aS,13aS)- or (10aR,13aR)-3-((1R,3S)-3-methoxycyclobutyl)-1-methyl-8-(trifluoromethyl)-3,4,10a,11,13a,14-hexahydro-10H,13H-5,9-(azeno)furo[3,4-k]pyrazolo[4,3-b][1]oxa[4,6,10]triazacyclotridecine]", "IC50": 0.0912}
    ]}
  ]
}
